Entries after “also recorded” stand apart in the source; their conditions may differ. Where two headings read alike, the source gives them in different places.
Experiments:
Dopamine (DA) = test: Microdialysis studies in mice brain (cortex, striatum); assay type: in vivo; conditions: 10 mg/kg s.c., n=1-2
Experimental: In a small subset of mice, microdialysis was performed with a probe placed in either the striatum or cortex by use of stereotaxis.

[1] = test system: formalin-induced flinching behaviour; test: Automated rat formalin test of persistent nociceptive pain; assay type: in vivo, Sprague-Dawley rats
Experimental: All treatments were administered s.c. in a dosing volume of 2 ml/kg 60 min prior to formalin injection.
Adult male Sprague-Dawley rats (Harlan Scandinavia, Alleroed, Denmark) were used. They were housed in Macrolon III cages (20 x 14 x 18 cm or 20 x 40 x18 cm; in groups of 2-5 per cage according to weight) containing wood-chip bedding material (3 x 1 x 4 mm). The environment was temperature (20 ± 2°C) and humidity (55 ± 15%) controlled and consisted of a light-dark cycle of 13:11 h (lights on at 06.00 h and off at 19.00 h). Food (Altromin®) and water were available ad libitum. The rats were allowed to habituate to the housing facilities for at least one week prior to being randomly assigned to behavioural experiments. At the end of each experiment rats were euthanized by cervical dislocation. All experiments were performed according to the Ethical Guidelines of the International Association for the Study of Pain (Zimmermann, 1983) and the Danish Committee for Experiments on Animals.
As highlighted in the Procedures section below 4 rats were included in each automated testing session. 4 individual treatments were assessed during the session and treatments were rotated to minimise bias associated with a particular testing chamber. […]
Assessment of formalin-induced flinching behaviour in normal, uninjured rats (body weight 180-220 g) was made with the use of an Automated Nociception Analyser (University of California, San Diego, CA; Yaksh et al., 2001). […] They were then returned to their separate observation chambers, each of which were in turn situated upon an enclosed detection device consisting of two electromagnetic coils designed to produce an electromagnetic field in which movement of the metal band could be detected. […] In an initial formalin concentration response study, five phases of nociceptive behaviour were identified and scored according to Yaksh et al., (2001); first phase (P1=0-5 min), interphase (Int=6-15 min), early second phase (P2A=16-40 min), late second phase (P2B=41-60 min) and entire second phase (P2A+P2B=16-60 min). […]

[2] = Phase I ascending single oral dose study: pharmacokinetics; assay type: in vivo, human; conditions: for Tmax / half-life: human, in vivo, po; for Tmax: single oral dose, postdose
Experimental: Study design. The study was a Phase I, randomised, double-blind, placebo-controlled, ascending single oral dose, safety, tolerability, pharmacokinetic (PK) and pharmacodynamics (PD) study of IP2015 in healthy male subjects.
Each subject received one oral dose of IP2015 or matched placebo. […] The dose level was to be escalated to a maximum of 0.05 mg in Cohort 2 and a maximum of 0.2 mg in Cohort 3. The doses in the remaining five cohorts were to be determined based on the dose escalation criteria.
Subjects were required to attend the clinical research unit (CRU) for a screening visit within 28 days prior to dosing. […] All subjects remained in the CRU until Day 3 (48 hours postdose) for the collection of safety assessments, PK blood and urine samples, and CNS assessments.
Study Drug, Dose and Mode of Administration. IP2015 and matched placebo were provided as a powder in bottles for oral solution. […] Reconstitution was performed by a pharmacist at the clinical site prior to dosing.
The dose was taken with 240 mL of water at room temperature. Subjects/participants were fasted overnight prior to dosing until 4 hours postdose. Water was allowed ad libitum except for 1 hour before and 1 hour after dosing.
The doses used in each cohort were as follows: • Cohort 1 - 0.01 mg • Cohort 2 - 0.05 mg • Cohort 3 - 0.2 mg • Cohort 4 - 0.6 mg • Cohort 5 - 1.8 mg • Cohort 6 - 5.4 mg • Cohort 7 - 16.2 mg • Cohort 8 - 10 mg
The study also evaluated plasma PK concentrations and parameters including but not limited to: area under the plasma concentration vs time curve (AUC), from time zero to the last quantifiable concentration (AUC0-t), AUC from zero to infinity (AUC0-∞), observed maximum plasma concentration (Cmax), time to reach maximum plasma concentration (tmax) and terminal elimination half-life (T1/2) in healthy male subjects.
Statistical methods. Safety parameters were listed and summarised using descriptive statistics. Pharmacokinetic parameter estimates were calculated using noncompartmental methods. Pharmacokinetic data were listed for each subject/patient and summarised by descriptive statistics.
Dose proportionality was analysed for Part A with a linear regression model using the logarithm of a PK parameter as responsible variable and the logarithm of the dose as the independent variable. The linear regression model can be expressed as: Log(yi) = α + β*log dosei + εi [formula] where α is the intercept, dosei is the actual dose of IP2015 for the ith subject and εi is the (within subject) random error in observing yi.
The above model was applied to the following PK parameters; AUC0-t, AUC0-∞ and Cmax. Based on the linear regression model, the dose proportionality coefficient (slope) and its two-sided 90% confidence interval (CI) were estimated. Dose proportionality was declared if the 90% CI for the slope was completely contained in the following range16: 1+log(0.5)/log(r), 1+log(2)/log(r), where r is the high dose/low dose.

COc1cc2ccc(O[C@@H]3C[C@H]4CC[C@@H](C3)N4)cc2oc1=O [IP2015, exo-7-[(8-azabicyclo[3.2.1]octan-3-yl)oxy]-3-methoxy-chromen-2-one]
Dopamine (DA) elevation in cortex (Dopamine (DA)): increased; also recorded: most pronounced
Dopamine (DA) elevation in striatum (Dopamine (DA)): less and only some elevation
flinches in P1, interphase and P2 ([1]; 1, 3, 10, 30 mg/kg s.c., 60 min prior to 5% formalin): reduced the prevalence of flinches; also recorded: robust dose-dependent inhibition
observation in rats of the formalin test ([1]; 10 or 30 mg/kg s.c., all rats): spontaneous erections and/or ejaculations
minimal effective dose ([1]; s.c., especially during interphase and 2nd phase, stated as likely): < 3 mg/kg
Plasma concentrations of IP2015 ([2]; 0.01 mg and 0.05 mg single oral dose, all subjects): below the LLOQ
subjects with plasma concentrations below the LLOQ ([2]; 0.2 mg single oral dose): 3/7
Tmax ([2]; read-out: tmax (range across all dose levels)): 1 to 6 h
Tmax ([2]; range of medians across doses, read-out: Median tmax): 2.25 to 5 h
half-life ([2]; 0.6 mg, calculated for 1/6 subjects, read-out: mean t½ (converted)): 14.5 h
half-life ([2]; 1.8 mg, calculated for 3/6 subjects, read-out: mean t½ (converted)): 16.1 h
half-life ([2]; 5.4 mg to 16.2 mg doses, range of means, read-out: mean T½): 23.1 to 26.3 h
